According to patent publication US10239859B2, “Nitrogen-containing heterocycles as pesticides” (Bayer CropScience Aktiengesellschaft, priority 2015, dated 2019):
Read-outs that look alike come from different tables or passages of the source.

Legend:
[1] = log P determination by HPLC on reversed-phase C18 columns (OECD Guideline 117); assay type: physicochemical
Experimental: The log P values were determined in accordance with OECD Guideline 117 (EC Directive 92/69/EEC) by HPLC (high-performance liquid chromatography) using reversed-phase (RP) columns (C18), by the following methods:
[a] The LC-MS determination in the acidic range is effected at pH 2.7 with 0.1% aqueous formic acid and acetonitrile (contains 0.1% formic acid) as eluents; linear gradient from 10% acetonitrile to 95% acetonitrile.
[b] LC-MS determination in the neutral range is effected at pH 7.8 with 0.001 molar aqueous ammonium hydrogencarbonate solution and acetonitrile as eluents; linear gradient from 10% acetonitrile to 95% acetonitrile.

Myzus persicae = Myzus persicae spray test (Chinese cabbage leaf discs); assay type: in vivo; conditions: after 6 days
Experimental: Myzus persicae—Spray Test
Solvent: 78 parts by weight of acetone • • 1.5 parts by weight of dimethylformamide
(§1) Emulsifier: alkylaryl polyglycol ether
(§2) To produce a suitable active compound preparation, 1 part by weight of active compound is dissolved with the stated parts by weight of solvent and made up with water containing an emulsifier concentration of 1000 ppm until the desired concentration is attained. To produce further test concentrations, the preparation is diluted with emulsifier-containing water.
Discs of Chinese cabbage leaves (Brassica pekinensis) infested by all stages of the green peach aphid (Myzus persicae) are sprayed with an active compound preparation of the desired concentration.
After 6 days, the efficacy in % is determined. 100% means that all the aphids have been killed; 0% means that no aphids have been killed.

Lucilia cuprina = Lucilia cuprina test; assay type: in vivo; conditions: 100 ppm, L1 larvae, after 2 days
Experimental: (§3) Solvent: dimethyl sulphoxide
To produce a suitable active compound preparation, 10 mg of active compound are mixed with 0.5 ml of dimethyl sulphoxide, and the concentrate is diluted with water to the desired concentration.
About 20 L1 larvae of the Australian sheep blowfly (Lucilia cuprina) are transferred into a test vessel containing minced horsemeat and the active compound preparation of the desired concentration.
After 2 days, the kill in % is determined. 100% means that all the larvae have been killed; 0% means that no larvae have been killed.

Phaedon cochleariae = Phaedon cochleariae spray test; assay type: in vivo; conditions: 500 g/ha, larvae on Chinese cabbage leaf discs, after 7 days
Experimental: Phaedon cochleariae—Spray Test
(§4) Solvent: 78.0 parts by weight of acetone • • 1.5 parts by weight of dimethylformamide
as §1, §2
After 7 days, the efficacy in % is determined. 100% means that all the beetle larvae have been killed; 0% means that no beetle larvae have been killed.

Tetranychus urticae = Tetranychus urticae spray test, OP-resistant; assay type: in vivo; conditions: 500 g/ha, bean leaf discs, after 6 days
Experimental: Tetranychus urticae—Spray Test, OP-Resistant
as §4, §1, §2
Discs of bean leaves (Phaseolus vulgaris) infested with all stages of the greenhouse red spider mite (Tetranychus urticae) are sprayed with an active compound preparation of the desired concentration.
After 6 days, the efficacy in % is determined. 100% means that all the spider mites have been killed; 0% means that no spider mites have been killed.

Ctenocephalides felis = Ctenocephalides felis oral test; assay type: in vivo; conditions: 100 ppm in citrated cattle blood, adult cat fleas, after 2 days
Experimental: Ctenocephalides felis—Oral Test
as §3
To produce a suitable active compound preparation, 10 mg of active compound are mixed with 0.5 ml of dimethyl sulphoxide. Dilution with citrated cattle blood gives the desired concentration.
About 20 unfed adult cat fleas (Ctenocephalides felis) are placed into a chamber which is closed at the top and bottom with gauze. A metal cylinder whose bottom end is closed with parafilm is placed onto the chamber. The cylinder contains the blood/active compound preparation, which can be imbibed by the fleas through the parafilm membrane.
After 2 days, the kill in % is determined. 100% means that all of the fleas have been killed; 0% means that none of the fleas have been killed.

[2] = reversed-phase C18 HPLC column, neutral range, pH 7.8, 0.001 molar aqueous ammonium hydrogencarbonate / acetonitrile, read-out: LogP value (neutral)
[3] = reversed-phase C18 HPLC column, acidic range, pH 2.7, 0.1% aqueous formic acid / acetonitrile, read-out: logP value (HCOOH)

S=c1ccccn1-c1ccc(-n2cnc(Cl)n2)nc1 [VI-5, 6′-(3-Chloro-1,2,4-triazol-1-yl)-[1(2H), 3′-bipyridine]-2-thione]
chromatographic logP [1, 2]: 1.58

N#C/N=c1\ccccn1-c1ccc(Br)nc1 [Example 2, [1-[6-Bromopyridin-3-yl]-2(1H)-pyridinylidene]cyanamide]
efficacy (Myzus persicae; 100 g/ha): 90%
chromatographic logP [1, 3]: 1.07

N#Cc1cccn(-c2ccc(Cl)nc2)c1=O [IV-4, 1,2-Dihydro-2-oxo-1-(6-chloropyridin-3-yl)-3-pyridinecarbonitrile]
chromatographic logP [1, 3]: 1

O=c1ccccn1-c1ccc(C(F)(F)F)nc1 [IV-1, 6′-Trifluoromethyl-[1(2H),3′-bipyridin]-2-one]
chromatographic logP [1, 3]: 1.26

O=c1ccccn1-c1ccc(Br)nc1 [IV-2, 6′-Bromo-[1(2H), 3′-bipyridin]-2-one]
chromatographic logP [1, 3]: 0.95

O=c1ccccn1-c1ccc(C(F)(F)C(F)(F)F)nc1 [IV-33, 6′-Pentafluoroethyl-[1(2H), 3′-bipyridin]-2-one]
chromatographic logP [1, 3]: 1.94

O=c1ccccn1-c1ccc(C(F)(C(F)(F)F)C(F)(F)F)nc1 [IV-32, 6′-(1,1,1,2,3,3,3-Heptafluoropropyl)-[1(2H), 3′-bipyridin]-2-one]
chromatographic logP [1, 3]: 2.4

Cc1ccc(-n2ccccc2=S)cn1 [VI-1, 6′-Methyl-[1(2H),3′-bipyridine]-2-thione]
chromatographic logP [1, 3]: 0.51

O=c1ccccn1-c1ccc(C(F)(F)C(F)(F)C(F)(F)F)nc1 [IV-31, 6′-Heptafluoropropyl-[1(2H),3′-bipyridin]-2-one]
chromatographic logP ([1]; acidic range, pH 2.7, 0.1% aqueous formic acid / acetonitrile, read-out: logP value (HCOOH)): 2.26

O=C(/N=c1\ccccn1-c1ccc(C(F)(F)F)nc1)C(F)(F)F [Example 7]
efficacy (Myzus persicae; 500 g/ha): 100%
chromatographic logP [1, 3]: 2.19
efficacy (kill) (Lucilia cuprina): 95%

O=c1ccccn1-c1ccc(-n2cnc(Cl)n2)nc1 [IV-29, 6′-(3-Chloro-1,2,4-triazol-1-yl)-[1(2H), 3′-bipyridin]-2-one]
chromatographic logP [1, 3]: 1.23

[1-[[6-(3-Trifluoromethylpyrazol-1-yl)pyridin-3-yl]-2-(1H)-pyridinylidene]cyanamide [Example 25]
LogP value (neutral) ([1]; pH 7.8): 2.23

O=C(/C=C1\C=CC=CN1c1ccc(C(F)(F)F)nc1)C(F)(F)F [Example 4, (3E)-3-[1-(6-Trifluoromethyl-3-pyridinyl)-2(1H)-pyridinylidene]-1,1,1-trifluoro-2-propanone]
efficacy (Myzus persicae; 500 g/ha): 90%
chromatographic logP [1, 3]: 2.2
efficacy (kill) (Lucilia cuprina): 100%

N#C/N=c1\ccccn1-c1ccc(F)nc1 [Example 8, [1-[6-Fluoropyridin-3-yl]-2(1H)-pyridinylidene]cyanamide]
efficacy (Myzus persicae; 500 g/ha): 90%
efficacy (Phaedon cochleariae): 100%
chromatographic logP [1, 3]: 0.7

O=c1ccccn1-c1ccc(Cl)nc1 [IV-14, 6′-chloro-[1(2H),3′-bipyridin]-2-one]
chromatographic logP [1, 3]: 0.67

N#C/N=c1\ccccn1-c1ccc(C(F)(F)F)nc1 [Example 1, [1-[6-Trifluoromethylpyridin-3-yl]-2(1H)-pyridinylidene]cyanamide]
efficacy (Tetranychus urticae): 100%
efficacy (Myzus persicae; 500 g/ha): 100%
efficacy (kill) (Ctenocephalides felis): 95%
efficacy (Phaedon cochleariae): 100%
efficacy (kill) (Lucilia cuprina): 100%

N#C/N=c1\ccccn1-c1ccc(-n2cnc(Cl)n2)nc1 [Example 24, [1-[6-(3-Chloro-1,2,4-triazol-1-yl)pyridin-3-yl]-2-(1H)-pyridinylidene]cyanamide]
chromatographic logP [1, 2]: 1.39

Cc1ccc(-n2cccc/c2=N\C#N)cn1 [Example 3, [1-[6-Methylpyridin-3-yl]-2(1H)-pyridinylidene]cyanamide]
efficacy (Myzus persicae; 100 g/ha): 90%
efficacy (Phaedon cochleariae): 100%
chromatographic logP [1, 3]: 0.46

FC(F)(F)c1ccc(-n2ccccc2=S)cn1 [VI-2, 6′-trifluoromethyl-[1(2H),3′-bipyridine]-2-thione]
chromatographic logP [1, 3]: 1.7
